Laboratory results as given in publication PMC6405172, “In vitro activity and mode of action of phenolic compounds on Leishmania donovani” (PLoS Neglected Tropical Diseases, 2019).
Read-outs that look alike come from different tables or passages of the source.

Key:
[1] = tested on: Leishmania donovani promastigotes; test: Promastigote viability assay (MTT); format: cell-based; details: for Selectivity Index (CC50/IC50), promastigotes: CC50 Raw 264.7 / IC50 promastigotes; for IC50: Leishmania donovani, MTT, 72 hours at 25°C, read-out: Promastigotes IC50 (μM) ± SD
Procedure: The MTT assay was done as previously described. Briefly, promastigotes (2 x 10^5 cells) were cultured in freshly prepared M-199 medium supplemented with 10% heat inactivated fetal bovine serum in the presence or absence of varying concentrations of the phenolic compounds (0–50 μg/mL) for 72 hours at 25°C. Amphotericin B (0–50 μg/mL) and deferoxamine (0–50 μg/mL) were used as positive controls. After incubation, 5 mg/mL MTT solution was added to the promastigotes in each well and incubated for 3 hours at 25°C. In this assay, the yellow tetrazolium MTT dye was reduced to insoluble formazan crystals (purple color) in living cells using NADH as their reducing agent. Formazan crystals formed after incubation were solubilized with acidified isopropanol and incubated at 37°C for 30 min. The change in color from yellow to purple was read at an absorbance of 570 nm using Thermo Scientific Varioskan LUX. The cell viability and IC50 were determined from the concentration response curve generated using GraphPad Prism 6.0 Software.

[2] = Cytotoxicity of compounds on mammalian cells (MTT); format: cell-based; details: mouse, Raw 264.7 macrophage cells, Raw 264.7 cells, read-out: Macrophages CC50 (μM) ±SD
Procedure: Raw 264.7 cells were seeded into 96-well plates at (1 x 10^6 cells) in DMEM supplemented with 10% FBS, 100 μg/mL streptomycin, 100 u/mL penicillin-G, 2g/L NaHCO3 and incubated at 37°C for 24 hours in 5% CO2. The cells were treated with 0–50 μg/mL concentrations of the phenolic compounds for 48 hours at 37°C in 5% CO2. Deferoxamine and amphotericin B at 0–50 μg/mL concentrations were used as positive controls. Cell viability was estimated by measuring the mitochondria oxidative activity by MTT assay and absorbance was read at 570 nm using Thermo Scientific Varioskan LUX. Selectivity index (SI) was calculated as the ratio of the CC50 to IC50 values.

[3] = tested on: Leishmania donovani intracellular amastigotes; test: Intracellular amastigote assay in infected RAW 264.7 cells; format: cell-based; details: for Selectivity Index (CC50/IC50), amastigotes: CC50 Raw 264.7 / IC50 intracellular amastigotes; for IC50: intracellular amastigotes in RAW 264.7 cells, 48 hours, read-out: Amastigotes IC50 (μM) ± SD
Procedure: (§1) Amastigote cultures were prepared as reported by Jain and colleagues. Briefly, Raw 264.7 cells (4 x 10^7 cells) were seeded in 4 chamber slides and 1 x 10^7 cells in 96 well plates and incubated for 24 hours at 37°C in 5% CO2. The RAW 264.7 cells were infected with metacyclic promastigotes (1 x 10^8 cells) at an infection ratio of 1:10 macrophage: parasites and incubated for 24 hours at 37°C in 5% CO2. The overlying medium was removed, and the monolayer intracellular amastigotes were carefully washed four times with serum free M199 to remove free parasites. Freshly prepared M199 containing 10% FBS and the test compounds at concentrations ranging from 0–50 μg/mL were added to the infected cells and incubated for 48 hours at 37°C in 5% CO2. Triplicate incubations were performed in all the experiments. The chamber slides were washed thrice after incubation with M199 without FBS. The slides were then fixed in absolute methanol for 30 sec, rehydrated in 1x PBS for 5 min and stained with DAPI for 15 min. The slides were viewed by fluorescence microscopy and the number of infected macrophages counted using ImageJ Software to determine the infectivity index and IC50 values for amastigotes.
The infected RAW 264.7 cells in the 96 wells microtiter plates were also incubated for 48 hours and washed thrice as above. Sodium dodecyl sulfate (SDS) of concentration 0.05% was added to the wells for 30 sec for controlled lysis with M199 and 10% FBS. After the 30 sec, M199 with 10% FBS was added and the plates incubated at 25°C for 72 hours for the differentiation of the rescued amastigotes to promastigotes. Following incubation, the amastigotes were subjected to MTT assay and the absorbance obtained were used to estimate IC50 values of the compounds against the amastigote forms.

[4] = tested on: L. donovani promastigotes; test: Promastigote mitochondria integrity (MitoTracker Red CMXROS); format: cell-based, Leishmania donovani; details: 24 hours; 2x IC50 (amphotericin B 1/2 IC50)
Procedure: After incubation, the promastigotes were harvested and resuspended in serum-free M199/1%BSA. MitoTracker Red CMXROS (a cationic fluorescent dye that labels the mitochondria within live cells) at 100 nM was added and incubated for 30 min. Parasites were washed once with serum-free M199/1% BSA, pelleted by centrifugation at 1500 rpm for 10 min, resuspended in 1x vPBS and 6% paraformaldehyde and incubated at 4°C for 1 hour. The promastigote pellets were washed twice and resuspended in 1xPBS. The parasites were then allowed to settle on poly-L-lysine coated slides and DAPI stain (0.1μg/mL) was added followed by one wash in 1x PBS. Coverslips were mounted onto the slides using Vectashield mounting media and observed under the Olympus fluorescent microscope to detect any abnormalities in the structure of the mitochondria. The total number of parasites was determined by direct counting of parasites per field, using ImageJ Software. Parasites with distorted mitochondria were visually determined by counting parasites that had any abnormalities in the structure of the mitochondria compared to the untreated control.

[5] = tested on: Leishmania iron transporter 1 (LIT1); test: RT-qPCR mRNA expression of LIT1; format: cell-based, Leishmania donovani; details: promastigotes, 24 hours; for LIT1 Relative quantity: Fig 7A
Procedure: (§2) Promastigotes (1 x 10^7 cells) were separately treated with rosmarinic acid, apigenin, amphotericin B and deferoxamine, harvested after 24 hours incubation at 25°C. The parasites were then pelleted by centrifugation at 239 × g for 10 min and the pellet was re-suspended in 1 mL TRIzol. Samples were incubated overnight at -80°C and total RNA was extracted as described by the manufacturer’s protocol using Quick-RNA MiniPrep Plus (Zymo Research, USA). Purity of total RNA was determined to be approximately 2.0 using a Nanodrop. The oligonucleotide primers for the amplification of the iron dependent enzymes—ribonucleotide reductase (RNR) (3’[…] and 5’CAACAACTTCTGCGCATCG), iron superoxide dismutase A (FeSOD) (3’[…] and 5’[…]) and Leishmania iron transporter 1 (LIT1) (3’[…] and 5’ […]) were designed using sequences of Leishmania reference genome from tritrypdb.org (http://tritrypdb.org/tritrypdb/) and Primer 3 software. The oligonucleotide primers used in amplifying the housekeeping gene Histone 2A were (3’ […] and 5’[…]). The RT-qPCR reaction was conducted as described by manufacturer’s protocol with final concentrations of oligonucleotide primers as 0.4 μM, 1x Luna Universal One-Step Reaction mix, 1x Luna WarmStart RT Enzyme Mix and template RNA ≤ 1 μg. All the RT-PCR products were standardized with respect to the endogenous control, Histone 2A. The levels of the mRNA transcripts were obtained using the QuantStudio 5 Real-Time PCR System (Applied Biosystems). The data represent three independent experiments done in triplicate and a fold change in gene expression of >2 was considered significant.

[6] = tested on: iron superoxide dismutase A (FeSOD); test: RT-qPCR mRNA expression of FeSOD; format: cell-based, Leishmania donovani; details: promastigotes, 24 hours; for FeSOD Relative quantity: Fig 7B
Procedure: as §2

[7] = tested on: Leishmania donovani intracellular amastigotes; test: Infectivity index of infected macrophages (DAPI, fluorescence microscopy); format: cell-based; details: 48 hours; for infectivity values (infectivity index): concentration not given
Procedure: as §1

Row | Structure (SMILES) | Selectivity Index (CC50/IC50), promastigotes [1] | IC50 [1] [µM] | CC50 at 48 h [2] [µM] | Selectivity Index (CC50/IC50), amastigotes [3] | IC50 ([3]; Leishmania donovani, RAW264.7) [µM] | promastigotes with mitotracker dye accumulating in the cytoplasm (distorted mitochondrion) [4] [%] | LIT1 mRNA expression versus untreated [5] | LIT1 Relative quantity [5] | FeSOD mRNA expression versus untreated [6] | FeSOD Relative quantity [6] | infectivity values (infectivity index) [7] | IC50 ([3]; Leishmania donovani, RAW264.7, 48 h) [µM] | IC50 [3] [µM] | infectivity index ([7]; 3.12 μg/mL)
1 | O=c1cc(-c2ccc(O)cc2)oc2cc(O)cc(O)c12 [Apigenin, apigenin] | 10.45 | 22.77 ± 0.01 | 237.9 ± 0.03 | 5.21 | 45.66 ± 0.01 | 75.8 | no observed change | 0.8 | did not significantly change | 0.7 | 152.2 |  |  | 
2 | O=C(/C=C/c1ccc(O)c(O)c1)O[C@H](Cc1ccc(O)c(O)c1)C(=O)O [Rosmarinic acid, rosmarinic acid] | 15.03 | 16.34 ± 0.1 | 245.6 ± 0.3 | 12.70 | 19.21 ± 0.01 | 70 | 3 fold | 3.0 | did not significantly change | 1.3 | 140 |  |  | 
3 | C[C@@H]1[C@H](O)[C@@H](C)/C=C/C=C/C=C/C=C/C=C/C=C/C=C/[C@H](O[C@@H]2O[C@H](C)[C@@H](O)[C@H](N)[C@@H]2O)C[C@@H]2O[C@](O)(C[C@@H](O)C[C@@H](O)[C@H](O)CC[C@@H](O)C[C@@H](O)CC(=O)O[C@H]1C)C[C@H](O)[C@H]2C(=O)O [Amphotericin B, reference compound] |  | 6.56 ± 0.06 | 15.75 ± 0.03 | 2.40 |  | 99 | 5 fold | 4.7 | did not significantly change | 0.7 |  | 6.491 ± 0.03 | 6.49 ± 0.03 | 56
4 | CC(=O)N(O)CCCCCNC(=O)CCC(=O)N(O)CCCCCNC(=O)CCC(=O)N(O)CCCCCN [Deferoxamine, deferoxamine, reference compound] | 2.60 | 10.35 ± 0.01 | 26.88 ± 0.02 | 0.73 | 36.74 ± 0.01 | 81 | 125 fold | 125 | 5 fold | 5.0 | 177 |  |  | 
